This passage reports MIC, solubility in water and solubility results from patent publication US4500526A, “Cephalosporin derivatives” (Bristol-Myers Company, priority 1983, dated 1985).

Values after ≈ are worked out from the molar mass of the structure shown. Read-outs that look alike come from different tables or passages of the source.

Data set [1] relates to N. meningitidis (5). The experiment in a line: In vitro activity against fastidious bacteria, two-fold serial agar dilution. Conditions: Neisseria meningitidis, read-out: Geometric Mean of MIC. In kind it is cell-based. The procedure: (§1) The in vitro activity of some of the preferred compounds against 30 strains of fastidious bacteria was determined by the two-fold serial agar dilution method in Gonococcus agar (GC agar), and the results are shown in Table 3.
On the technique in general: Agar dilution tests growth on a series of plates holding different concentrations.

The test system of data set [2] is N. gonorrhoeae (5). The description is as above. In kind it is cell-based. Particulars: Neisseria gonorrhoeae, read-out: Geometric Mean of MIC. The procedure:
as §1

Data set [3] has as its system H. influenzae (3) (ampicillin resistant). The description is as above. In kind it is cell-based. Particulars: Haemophilus influenzae, read-out: Geometric Mean of MIC. The procedure: as §1
The subject of data set [4] is S. pyogenes (5 strains). The data set is described as above. In kind it is cell-based. Particulars: Streptococcus pyogenes; GC agar; read-out: Geometric Mean of MIC. The method, then:
as §1

The test system of data set [5] is S. pneumoniae (5). The data set is described as above. The class given is cell-based. Conditions: Streptococcus pneumoniae; GC agar; read-out: Geometric Mean of MIC. The procedure:
as §1

Data set [6] in a line: Solubility in water. In kind it is physicochemical. The method, then: A more soluble form of Compound Ia was prepared as follows. […] Powdered NaHCO3 was added in small portions, with stirring. A clear solution was obtained after adding 5.0 mg of NaHCO3 and the indicated pH then was 6.0. After filtration through a Millipore membrane filter to remove they insoluble impurities, the filtrate was lyophilized to give 245 mg of a water-soluble form of Compound Ia, mp 165° C. Estimated purity 80% (by HPLC). The sample was completely soluble in water to give a 25% solution.
To a stirred solution of diphenylmethyl 7-[(Z)-2-t-butoxycarbonylprop-2-oxyimino)-2-(2-tritylaminothiazol-4-yl)-acetamido]-3-iodomethyl-3-cephem-4-carboxylate [VIId'] (700 mg, 0.66 mmole) in 3 mL of DMSO, was added thiazolo[4,5-c]pyridine (115 mg, 0.84 mmole) in two portions and the mixture was stirred for 1.25 hours at room temperature. The reaction mixture was diluted with ether (150 mL) to separate an oily product, which was washed again with ether. The residue was dissolved in methylene chloride (100 mL) and the solution was filtered and evaporated to give 655 mg of the blocked product [XIIId']. The yellow product (630 mg) was suspended in anisole (1 mL) and, with ice cooling, was treated with a mixture of TFA (10 mL) and water (0.5 mL). The mixture was stirred for 20 minutes with ice cooling and then for 1 hour at room temperature. After evaporation of the mixture below 30° C., the residue was triturated with isopropyl ether (50 mL). The precipitate was collected by filtration, and dried under reduced pressure to obtain 485 mg of crude title compound as a yellow powder. The crude product (480 mg) was dissolved in a small volume of aqueous sodium bicarbonate and purified by HPLC (Column, Lichrosorb RP-18; mobile phase, water). The desired fractions were combined (ca. 90 mL) and acidified to pH 2 with dilute hydrochloric acid. The acidified solution was passed through an HP-20 column (50 mL) and washed with water (200 mL). […] Mp >180° C. (dec.).
The free acid of Compound Id (100 mg) was dissolved in a small volume of aqueous sodium bicarbonate and subjected to HPLC (Column, Lichrosorb RP-18; mobile phase, water). The eluate containing the desired product which was concentrated and lyophilized to give 30 mg of the sodium salt of Id as a pale yellow amorphous powder, which was more than 25% soluble in water. Mp 178°-196° C. (dec.).
A solution of diphenylmethyl 7-[(Z)-(2-t-butoxycarbonylprop-2-oxyimino)-2-(2-tritylaminothiazol-4-yl)acetamido]-3-iodomethyl-3-cephem-4-carboxylate [VIId'] (9.0 g, 8.5 mmoles) and thiazolo[4,5-c]pyridine (1.5 g, 11 mmoles) in dimethylsulfoxide (38 mL) was stirred at room temperature for 1 hour. The reaction mixture was poured into ether (500 mL) and, after decantation, the oily precipitate was dissolved in chloroform (300 mL). […]

The test system of data set [7] is Cephalothinresistant E. coli (3 strains) and Kl. pneumoniae (3 strains). The experiment in a line: MIC, two-fold serial agar dilution, group (G-)-Ib. In kind it is cell-based. Particulars: Escherichia coli, read-out: Geometric Mean of MIC. The method, boiled down: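 MICs by two-fold serial agar dilution in Mueller-Hinton agar against cephalothin-resistant E. coli and Klebsiella pneumoniae strains. Compound weights were corrected for purity.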

In data set [8] the test system is Cephalothinsensitive E. coli (2 strains), Kl. pneumoniae (1 strain) and Pr. mirabilis (2 strains). The data set can be described thus: MIC, two-fold serial agar dilution, group (G-)-Ia. The class given is cell-based. Conditions: 5 strains, Mueller-Hinton agar, read-out: Geometric Mean of MIC. The method, boiled down:
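Mueller-Hinton agar, two-fold serial dilution; test compound weights corrected for purity so MICs reflect actual compound content.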

The subject of data set [9] is M. morganii (1 strain), Ent. cloacae (2 strains) and Ser. marcescens (2 strains). The experiment in a line: MIC, two-fold serial agar dilution, group (G-)-II. The class given is cell-based. Conditions: (G-)-II, 5 strains, Mueller-Hinton agar; read-out: Geometric Mean of MIC. The gist of the method:
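Two-fold serial agar dilution in Mueller-Hinton agar; test-compound sample weights adjusted for purity of each compound before MIC determination.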

Data set [10] concerns Penicillinresistant S. aureus (5 strains). The data set can be described thus: MIC, two-fold serial agar dilution, group (G+)-Ib. Particulars: Staphylococcus aureus; (G+)-Ib, 5 strains, Mueller-Hinton agar; read-out: Geometric Mean of MIC. In kind it is cell-based. The gist of the method:
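Two-fold serial agar dilution in Mueller-Hinton agar against penicillin-resistant S. aureus (5 strains). Test compound weights adjusted for purity.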

Take `CC(C)(O/N=C(\C(=O)NC1C(=O)N2C(C(=O)[O-])=C(C[n+]3ccc4scnc4c3)CS[C@H]12)c1csc(N)n1)C(=O)O` (stereo partly shown) [Id, 7-[(Z)-2-(2-Aminothiazol-4-yl)-2-(2-carboxyprop-2-oxyimino)-acetamido]-3-{(5-thiazolo[4,5-c]pyridinio)methyl}-3-cephem-4-carboxylate]: the MIC in data set [1] turned out to be 0.1 µg/mL (≈ 0.166 µM); in data set [2] it was 0.1 µg/mL (≈ 0.166 µM); in [3], 0.1 µg/mL (≈ 0.166 µM); in data set [4], 0.2 µg/mL (≈ 0.331 µM); in data set [5], 0.2 µg/mL (≈ 0.331 µM); in data set [7], 0.71 µg/mL (≈ 1.18 µM). Also, the MIC was 0.04 µg/mL (≈ 0.0663 µM) in [8], 0.88 µg/mL (≈ 1.46 µM) in [9] and 8.8 µg/mL (≈ 14.6 µM) in data set [10]. Moreover, the solubility in water entry in data set [6] (free acid) is recorded as “slightly soluble in water”. Besides, the solubility in [6] (water, sodium salt) was more than 250 mg/mL.
Turning to `CO/N=C(\C(=O)NC1C(=O)N2C(C(=O)[O-])=C(C[n+]3ccc4scnc4c3)CS[C@H]12)c1csc(N)n1` (stereo partly shown) [Ia, 7-[(Z)-2-(2-Aminothiazol-4-yl)-2-methoxyiminoacetamido]-3-{(5-thiazolo[4,5-c]pyridinio)methyl}-3-cephem-4-carboxylate], the MIC in data set [1] (GC agar) was 0.0125 µg/mL (≈ 0.0235 µM); in data set [2] (GC agar), 0.0125 µg/mL (≈ 0.0235 µM); in data set [3] (GC agar, ampicillin resistant, 3 strains), 0.0125 µg/mL (≈ 0.0235 µM); in data set [4] it was 0.0125 µg/mL (≈ 0.0235 µM); in [5] it was 0.0125 µg/mL (≈ 0.0235 µM); in data set [7], 0.16 µg/mL (≈ 0.301 µM). Also, the MIC in data set [8] was determined as 0.02 µg/mL (≈ 0.0376 µM); in [9], 0.16 µg/mL (≈ 0.301 µM); in data set [10] it was 0.96 µg/mL (≈ 1.81 µM). In data set [6] (250 mg in distilled water 1.0 mL, indicated pH 4.3), the solubility in water entry is given as “not completely soluble”. The compound also yielded a solubility in data set [6] (water-soluble form (NaHCO3 to pH 6.0, lyophilized)) not below 250 mg/mL.

The term solubility denotes how much of the substance goes into solution per volume.
